Test results: article PMC9154793, “Design, synthesis, and biological evaluation of triazole-pyrimidine-methylbenzonitrile derivatives as dual A2A/A2B adenosine receptor antagonists” (Journal of Enzyme Inhibition and Medicinal Chemistry, 2022)

Columns and labels:
human A2A AR = human A2A AR (Homo sapiens, UniProt P29274); assay: A2A AR radioligand binding assay ([3H]-ZM241385, HEK-293 cell membranes); settings: hA2A AR, HEK-293 membranes, [3H]-ZM241385; mean ± SEM; read-out: Radioligand binding assays IC50
Experimental: We further tested the IC50 values of compounds 7f, 7i, 17, 22, and AB928 in inhibiting the cAMP production of CHO cells expressing hA2A AR or hA2B AR (Table 2). […] In addition, the competitive binding experiments of compounds 7f, 7i, and AB928 were performed using membrane preparation of HEK-293 cells expressing human A2A AR (Table 3).
The target compounds were tested to evaluate their affinity for the A2A AR on HEK-293 cell membranes expressing human A2A AR. [^3H]-ZM241385 was used as a radioligand. The assay buffer (50 mM Tris-HCl, pH 7.4; 10 mM MgCl2; 1 mM EDTA; 1 μg/ml adenosine deaminase), wash buffer (50 mM Tris-HCl, pH 7.4; 154 mM NaCl), and 0.5% PEI solution were prepared and stored at 4 °C for use. The affinities were tested following the procedure reported by Hu et al[4].

[1] = Metabolic stability in rat liver microsomes; format: in vitro ADME, Sprague–Dawley rats; settings: for remaining at 10 min, 0.49 µM / remaining at 20 min, 0.49 µM / remaining at 0.5 h, 0.49 µM / remaining at 40 min, 0.49 µM / remaining at 50 min, 0.49 µM / remaining at 1 h, 0.49 µM / half-life at 0.49 µM: male, Sprague-Dawley, pooled rat liver microsomes; for remaining at 10 min, 0.49 µM / remaining at 20 min, 0.49 µM / remaining at 0.5 h, 0.49 µM / remaining at 40 min, 0.49 µM / remaining at 50 min, 0.49 µM / remaining at 1 h, 0.49 µM / CLint(liver) Rat: rat liver microsomes; for remaining at 0.5 h, 0.49 µM: 30 min; for remaining at 1 h, 0.49 µM: 60 min, read-out: Remaining (%, T = 60min) Rat; for half-life at 0.49 µM: rat, read-out: T1/2 Rat
Experimental: The metabolic stability is an important focus for further compound optimisation. Compounds 7f, 7i, and AB928 were chosen to evaluate the stability in rat liver microsomes and human liver microsomes. For the microsomal metabolic experiment, 7-ethoxycoumarin (7-EC) was used as a control. As shown in Table 4 (see Supporting information for raw data), the CLint(liver) of 7-EC in rats and humans was 10.0 and 9.0 ml/min/g liver, respectively, indicating the experimental test system was reliable.
Metabolic stabilities of compounds 7f, 7i, and AB928 in liver microsomes were studied with pooled human (male) liver microsomes solution (20 mg/ml) and male Sprague–Dawley rats pooled liver microsomes solution (20 mg/ml) purchased from Research Institute for Liver Diseases (Shanghai) Co. Ltd. Both liver microsomes solutions (140 μl) were diluted by 3948 μl of water and 280 μl of phosphate buffered saline. The assay procedure: 640 μl of diluted liver microsomes solution was added to a solution of compound working solution (16 μl, 25 μM in DMSO) and the mixed solution was incubated at 37 °C for 5 min. Then 160 μl of NADPH generating system was added and take out 100 μl from the mixed solution was added 200 μl of acetonitrile solution to stop the reaction at the set incubation time (0 min, 10 min, 20 min, 30 min, 40 min, 50 min, and 60 min). All stopped reaction solutions were vortex mixed (3 min) and centrifuged (10,000 rpm, 4 °C for 10 min). Then 50 μl of the supernatant was analysed by UPLC-MS/MS system (details of the analytical method see Supporting information). […]
8. Metabolic stability in human and rat liver microsomes
Metabolic stabilities of compounds 7f, 7i and AB928 in liver microsomes were studied with pooled human (male) liver microsomes solution (20 mg/mL) and male Sprague - Dawley rats pooled liver microsomes solution (20 mg/mL) purchased from Research Institute for Liver Diseases (Shanghai) Co. Ltd. Both liver microsomes solutions (140 μL) were diluted by 3948 μL of water and 280 μL of phosphate buffered saline. The assay procedure: 640 μL of diluted liver microsomes solution was added to a solution of compound working solution (16 μL, 25 μM in DMSO) and the mixed solution was […]
(1 picture or pasted object on this page, not shown here) […]
incubated at 37 ℃ for 5 min. Then 160 μL of NADPH generating system was added and take out 100 μL from the mixed solution was added 200 μL of acetonitrile solution to stop the reaction at the set incubation time (0 min, 10 min, 20 min, 30 min, 40 min, 50 min, and 60 min). All stopped reaction solutions were vortex mixed (3 min) and centrifuged (10000 rpm, 4 ℃ for 10 min). Then 50 μL of the supernatant was analyzed […]
8.2 Chromatography and mass spectrometry conditions
UPLC was performed using an […] UPLC system (Waters, Milford, MA, […]
USA). Separation was achieved on a Waters BEH C18 column(100 mm × 2.1 mm， 1.7 μm) at 40 ℃. The injection volume of the sample solution was 5 μL. The mobile phase consisted of water (0.1% formic acid and ammonium acetate) and acetonitrile solution (20:80, v/v) at a flow rate of 0.4 mL/min within a running time of 6 min. Mass spectrometric analysis was performed on a Waters Xevo TQ-S triple quadrupole instrument using electrospray ionization in positive mode. Quantification was performed using multiple reaction monitoring (MRM) mode to monitor precursor-product ion transitions (Table S1).
Table S1. Conditions of MRM Detection. […]
Table S2. Raw data of metabolic stability in human and rat liver microsomes. […]
(min) Hum Rat Hum Rat Hum Rat Hum Rat
9. Analytical method of pharmacokinetics assay
Animal experiments were performed according to the institutional ethical guidelines on animal care and approved by the Institute Animal Care and Use Committee at Binzhou […]
Female Bal b/c mice (sourced from Jinan Pengyue Experimental Animal Breeding […]

human A2B AR = target: T1, human A2B AR (Homo sapiens, UniProt P29275); assay: cAMP functional assay in CHO-K1/ADORA2b/Gα15 cells (NECA-stimulated, HTRF); format: cell-based; settings: for inhibition at 0.1 µM: compound at 100 nM, relative to ZM241385 at 1 μM, read-out: hA2B AR (%) inhibition of cAMP, 100 nM
T1 sequence (P29275 1-332): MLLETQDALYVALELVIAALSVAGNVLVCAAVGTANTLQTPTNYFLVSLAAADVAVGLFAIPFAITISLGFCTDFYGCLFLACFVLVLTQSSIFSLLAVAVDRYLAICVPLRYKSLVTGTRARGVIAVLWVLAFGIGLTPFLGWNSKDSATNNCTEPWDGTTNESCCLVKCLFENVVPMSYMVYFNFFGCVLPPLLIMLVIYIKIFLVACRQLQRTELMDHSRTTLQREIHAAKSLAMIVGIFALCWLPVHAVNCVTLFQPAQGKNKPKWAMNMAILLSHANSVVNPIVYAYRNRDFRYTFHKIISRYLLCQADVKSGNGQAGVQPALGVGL
Experimental: In the cAMP assay, CHO-K1/ADORA2A/Gα15 cells expressing human A2A AR and CHO-K1/ADORA2b/Gα15 cells expressing human A2B AR were activated by 5′-(N-ethylcarboxamido)adenosine (NECA) and triggered the accumulation of intracellular cAMP concentration.
CHO-K1/ADORA2A/Gα15 cells expressing human A2A AR and CHO-K1/ADORA2b/Gα15 cells expressing human A2B AR were both constructed by Genscript Biotech Corporation. […] The test stock solutions were diluted with different gradients for use. The procedure was exemplified by the cAMP functional assay on the A2A receptor: 10,000 cells/well of CHO-K1/ADORA2A/Gα15 were seeded in a 384-well plate in 20 μl of assay buffer. […] Then, 10 μl of detection reagent (cAMP-d2 and anti-cAMP-Eu3+) was added into each well of the plate and incubated at room temperature for 1 h.

Sequence of human A2A AR (P29274 whole entry): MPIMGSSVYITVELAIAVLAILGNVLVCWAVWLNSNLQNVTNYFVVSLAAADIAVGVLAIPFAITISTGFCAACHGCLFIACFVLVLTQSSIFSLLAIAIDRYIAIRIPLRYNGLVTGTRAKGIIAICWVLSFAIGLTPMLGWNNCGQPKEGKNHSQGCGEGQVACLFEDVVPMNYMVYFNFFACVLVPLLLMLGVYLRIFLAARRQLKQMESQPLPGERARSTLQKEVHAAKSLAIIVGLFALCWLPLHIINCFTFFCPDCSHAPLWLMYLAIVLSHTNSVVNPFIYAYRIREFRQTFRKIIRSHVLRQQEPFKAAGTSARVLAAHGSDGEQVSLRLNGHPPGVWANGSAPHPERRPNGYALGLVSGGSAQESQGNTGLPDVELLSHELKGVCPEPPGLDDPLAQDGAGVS

| IC50 (human A2A AR) [nM] | remaining at 10 min, 0.49 µM [1] [%] | remaining at 20 min, 0.49 µM [1] [%] | remaining at 0.5 h, 0.49 µM [1] [%] | remaining at 40 min, 0.49 µM [1] [%] | remaining at 50 min, 0.49 µM [1] [%] | remaining at 1 h, 0.49 µM [1] [%] | half-life at 0.49 µM [1] [h] | CLint(liver) Rat [1] [mL/min/g] | inhibition at 0.01 µM (human A2B AR; CHO-K1, compound at 10 nM, mean ± SEM, read-out: hA2B AR percentage of inhibition (I%) of cAMP, 10 nM (converted)) [%] | inhibition at 0.1 µM (human A2B AR; CHO-K1, mean ± SEM) [%] | IC50 (human A2B AR; CHO cells expressing hA2B AR, mean ± SEM, read-out: cAMP IC50 hA2B AR) [nM] | fold more active than AB928 (cAMP IC50, A2B AR) (human A2B AR; ratio of cAMP IC50 values vs AB928) [fold] | Compound |
| --- | --- | --- | --- | --- | --- | --- | --- | --- | --- | --- | --- | --- | --- |
| 158 ± 56.4 | 84.7 | 88 | 77.2 | 73.7 | 64.2 | 64 | 1.56 | 0.78 | 10.8 | 102.6 ± 0.24 | – | – | Cc1c(C#N)cccc1-c1cc(-c2cn(Cc3cccc(C#N)n3)nn2)nc(N)n1 [Compound 7f, 6-((4-(2-Amino-6-(3-cyano-2-methylphenyl)pyrimidin-4-yl)-1H-1,2,3-triazol-1-yl)methyl)picolinonitrile] |
| 63.6 ± 13 | 74.9 | 72.8 | 67.8 | 61 | 53.8 | 50.7 | 1.12 | 1.08 | – | 103.3 ± 0.63 | 14.1 ± 2.05 | 1.8 | Cc1c(C#N)cccc1-c1cc(-c2cn(Cc3cccc(C(N)=O)n3)nn2)nc(N)n1 [Compound 7i, 6-((4-(2-Amino-6-(3-cyano-2-methylphenyl)pyrimidin-4-yl)-1H-1,2,3-triazol-1-yl)methyl)picolinamide] |
